Source: patent US20250353873A1, “COMPOUNDS AND METHODS FOR MODULATING APOE EXPRESSION” (Ionis Pharmaceuticals, Inc., priority 2024, published 2025)
Strand notation (5' to 3'): a small letter for the sugar, then the base; units joined by * are phosphorothioate-linked, units joined directly phosphodiester-linked; [ ] holds rarer units or linkages, { } end groups; capitals alone tell only the bases. [ms] = mesyl phosphoramidate linkage; e = 2'-O-(2-methoxyethyl) (MOE); k = constrained ethyl (cEt); [5mC] = 5-methylcytosine; d = 2'-deoxy (DNA)

Tests used:
human APOE RNA [1] = test: Dose-dependent inhibition of human APOE RNA in HepG2 cells, electroporation, 50,000 cells per well, RT-PCR normalized to GAPDH (Example 4, Tables 8-10); type: cell-based; conditions: HepG2, electroporation, 24-hour treatment
Procedure: Modified oligonucleotides selected from the examples above were tested at various doses in HepG2 cells. The modified oligonucleotides were tested in a series of experiments that had the same culture conditions. Each experiment is identified in separate tables below.
HepG2 cells plated at a density of 50,000 cells per well were treated by electroporation with various concentrations of modified oligonucleotide as specified in the tables below. […] APOE RNA levels were measured using the human primer probe set RTS3073 (forward sequence […], designated herein as SEQ ID NO: 7; reverse sequence CCATCAGCGCCCTCAGTT, designated herein as SEQ ID NO: 8; probe sequence […], designated herein as SEQ ID NO:9). APOE RNA levels were normalized to human GAPDH. […] Results are presented as percent APOE RNA, relative to the amount of APOE RNA in untreated control cells (UTC).

human APOE RNA [2] = test: Activity in APOE C57BL/6NTac-Apoeem7250 knock-in mice, single ICV bolus, 4 weeks (Example 10); type: in vivo; conditions: single ICV bolus 300 μg, 4 weeks post treatment, normalized to mouse Ppia
Procedure: Modified oligonucleotides described above were tested in the APOE C57BL/6NTac-Apoeem7250 knock-in mouse model described above.
APOE C57BL/6NTac-Apoeem7250 knock-in mice were divided into groups of 2-4 mice each. Each mouse received a single ICV bolus of 300 μg of modified oligonucleotide. A group of 3-4 mice received a single ICV bolus with PBS as a negative control.
Four weeks post treatment, mice were sacrificed and RNA was extracted from cortical brain tissue and spinal cord for quantitative real-time RT-PCR analysis of RNA expression of APOE using human primer probe set RTS3073 (described herein above). APOE RNA levels were normalized to mouse Ppia. Mouse Ppia was amplified using primer probe set m_cyclo24 (described herein above). Results are presented as percent human APOE RNA relative to the amount of human APOE RNA in PBS treated animals, (% control). Each experiment is identified in separate tables below.

human APOE RNA [3] = test: Activity in APOE C57BL/6NTac-Apoeem7250 knock-in mice, single ICV bolus, 16 weeks (Example 12); type: in vivo; conditions: single ICV bolus 300 μg, 16 weeks post treatment, normalized to mouse Ppia
Outline: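 Knock-in mice (3-4 per group) received one ICV bolus of 300 μg oligonucleotide, PBS as control. After 16 weeks, human APOE RNA in cortex and spinal cord measured by RT-qPCR, normalized to mouse Ppia, and reported as % of PBS control.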

human APOE RNA [4] = test: Activity in APOE C57BL/6NTac-Apoeem7250 knock-in mice, single ICV bolus, 8 weeks (Example 11); type: in vivo; conditions: single ICV bolus 300 μg, 8 weeks post treatment, normalized to mouse Ppia
Outline: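 Human APOE knock-in C57BL/6NTac mice given one ICV bolus of 300 μg oligonucleotide; PBS-dosed group as control. At 8 weeks, cortex and spinal cord RNA measured by qRT-PCR (human probe RTS3073), normalized to mouse Ppia, expressed as % of PBS control.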

Substance	APOE RNA (% control) Cortex (human APOE RNA [3])	APOE RNA (% control) Spinal Cord (human APOE RNA [3])	APOE RNA (% control) Cortex (human APOE RNA [4])	APOE RNA (% control) Spinal Cord (human APOE RNA [4])	further results
1746796 (k[5mC]*kT*dT[ms]dG[ms]kG*dT[ms]dG[ms]dA[ms]dA[ms]dT*d[5mC]*dT*dT*dT*dA[ms]dT*kT*dA[ms]kA*kA; antisense) [Compound 1746796]	–	–	–	–	APOE RNA (% UTC) (human APOE RNA [1]; 5 nM): 110 % UTC; APOE RNA (% UTC) (human APOE RNA [1]; 13 nM): 126 % UTC; APOE RNA (% UTC) (human APOE RNA [1]; 33 nM): 128 % UTC; APOE RNA (% UTC) (human APOE RNA [1]; 82 nM): 137 % UTC; APOE RNA (% UTC) (human APOE RNA [1]; 205 nM): 119 % UTC; APOE RNA (% UTC) (human APOE RNA [1]; 512 nM): 89 % UTC; APOE RNA (% UTC) (human APOE RNA [1]; 1,280 nM): 71 % UTC; APOE RNA (% UTC) (human APOE RNA [1]; 3,200 nM): 40 % UTC; APOE RNA (% UTC) (human APOE RNA [1]; 8,000 nM): 28 % UTC; APOE RNA (% UTC) (human APOE RNA [1]; 20,000 nM): 20 % UTC; IC50 (human APOE RNA [1]): 3010 nM; APOE RNA (% control) Cortex (human APOE RNA [2]): 81 % control; APOE RNA (% control) Spinal Cord (human APOE RNA [2]): 68 % control
1746793 (k[5mC]*dT[ms]dT[ms]dG[ms]kG*kT*dG[ms]dA[ms]dA[ms]dT*d[5mC]*dT*dT*dT*dA[ms]dT*kT*kA*dA[ms]kA; antisense) [Compound 1746793]	–	–	–	–	APOE RNA (% UTC) (human APOE RNA [1]; 5 nM): 102 % UTC; APOE RNA (% UTC) (human APOE RNA [1]; 33 nM): 96 % UTC; APOE RNA (% UTC) (human APOE RNA [1]; 82 nM): 96 % UTC; APOE RNA (% UTC) (human APOE RNA [1]; 205 nM): 53 % UTC; APOE RNA (% UTC) (human APOE RNA [1]; 512 nM): 54 % UTC; APOE RNA (% UTC) (human APOE RNA [1]; 1,280 nM): 34 % UTC; APOE RNA (% UTC) (human APOE RNA [1]; 3,200 nM): 31 % UTC; APOE RNA (% UTC) (human APOE RNA [1]; 8,000 nM): 1 % UTC; APOE RNA (% UTC) (human APOE RNA [1]; 20,000 nM): 2 % UTC; IC50 (human APOE RNA [1]): 560 nM; APOE RNA (% control) Cortex (human APOE RNA [2]): 86 % control; APOE RNA (% control) Spinal Cord (human APOE RNA [2]): 47 % control
1681005: 5-10-5 MOE gapmer GGTGAATCTTTATTAAACTA, linkages ssssszsssszzszsssss (antisense eG*eG*eT*eG*eA*dA[ms]dT*d[5mC]*dT*dT*dT[ms]dA[ms]dT*dT[ms]dA*eA*eA*e[5mC]*eT*eA) [compound 1681005]	116 % control	68 % control	101 % control	70 % control	–
1693049: 5-10-5 MOE gapmer CTTGGTGAATCTTTATTAAA, linkages ssssszzzzssssszssss (antisense e[5mC]*eT*eT*eG*eG*dT[ms]dG[ms]dA[ms]dA[ms]dT*d[5mC]*dT*dT*dT*dA[ms]eT*eT*eA*eA*eA) [compound 1693049]	93 % control	81 % control	101 % control	96 % control	–
1693085: 6-10-4 MOE gapmer TTGGTGAATCTTTATTAAAC, linkages ssssszzzsssszzsssss (eT*eT*eG*eG*eT*eG[ms]dA[ms]dA[ms]dT*d[5mC]*dT*dT*dT[ms]dA[ms]dT*dT*eA*eA*eA*e[5mC]) [compound 1693085]	93 % control	71 % control	86 % control	79 % control	–
1693044: 5-10-5 MOE gapmer CTTGGTGAATCTTTATTAAA, linkages sssoszzzzssssssssss (antisense e[5mC]*eT*eT*eGeG*dT[ms]dG[ms]dA[ms]dA[ms]dT*d[5mC]*dT*dT*dT*dA*eT*eT*eA*eA*eA) [compound 1693044]	98 % control	63 % control	86 % control	95 % control	–
1693040: 5-10-5 MOE gapmer CTTGGTGAATCTTTATTAAA, linkages sssosszzzssssssosss (antisense e[5mC]*eT*eT*eGeG*dT*dG[ms]dA[ms]dA[ms]dT*d[5mC]*dT*dT*dT*dA*eTeT*eA*eA*eA) [compound 1693040]	92 % control	71 % control	80 % control	77 % control	–
1693039: 5-10-5 MOE gapmer CTTGGTGAATCTTTATTAAA, linkages sssosszzzssssssooss (antisense e[5mC]*eT*eT*eGeG*dT*dG[ms]dA[ms]dA[ms]dT*d[5mC]*dT*dT*dT*dA*eTeTeA*eA*eA) [compound 1693039]	127 % control	99 % control	90 % control	71 % control	–
1693051: 5-10-5 MOE gapmer TTGGTGAATCTTTATTAAAC, linkages ssosszzzsssssssosss (antisense eT*eT*eGeG*eT*dG[ms]dA[ms]dA[ms]dT*d[5mC]*dT*dT*dT*dA*dT*eTeA*eA*eA*e[5mC]) [compound 1693051]	97 % control	79 % control	114 % control	76 % control	–
1681021: 5-10-5 MOE gapmer GGTGAATCTTTATTAAACTA, linkages zsssszsssszzssssssz (antisense eG[ms]eG*eT*eG*eA*dA[ms]dT*d[5mC]*dT*dT*dT[ms]dA[ms]dT*dT*dA*eA*eA*e[5mC]*eT[ms]eA) [compound 1681021]	91 % control	40 % control	55 % control	68 % control	–
1693043: 5-10-5 MOE gapmer CTTGGTGAATCTTTATTAAA, linkages sssoszzzzssssssosss (antisense e[5mC]*eT*eT*eGeG*dT[ms]dG[ms]dA[ms]dA[ms]dT*d[5mC]*dT*dT*dT*dA*eTeT*eA*eA*eA) [compound 1693043]	80 % control	73 % control	89 % control	83 % control	–
1693042: 5-10-5 MOE gapmer CTTGGTGAATCTTTATTAAA, linkages sssosszzzssssssssss (antisense e[5mC]*eT*eT*eGeG*dT*dG[ms]dA[ms]dA[ms]dT*d[5mC]*dT*dT*dT*dA*eT*eT*eA*eA*eA) [compound 1693042]	90 % control	65 % control	77 % control	81 % control	–
1681020: 5-10-5 MOE gapmer GGTGAATCTTTATTAAACTA, linkages zsssszsssszzszssssz (antisense eG[ms]eG*eT*eG*eA*dA[ms]dT*d[5mC]*dT*dT*dT[ms]dA[ms]dT*dT[ms]dA*eA*eA*e[5mC]*eT[ms]eA) [compound 1681020]	92 % control	59 % control	63 % control	35 % control	–
